Laboratory results as given in PMC4854767 (Clinical cancer research : an official journal of the …, 2016).
Read-outs that look alike come from different tables or passages of the source.

Columns and labels:
[1] = tested on: chronic eosinophilic leukemia; settings: weekly dosing; cited from earlier work
MCF-7 tumors [2] = assay: MCF-7 xenograft tumor volume study; format: in vivo, mice
[3] = tested on: HCI-003 patient-derived breast cancer xenografts; assay: HCI-003 patient-derived xenograft tumor volume study; format: in vivo, mice; settings: fulv alone; HCI-003 xenografts
MCF-7 cells [4] = assay: Sulforhodamine B; format: cell-based, human
MCF-7 tumors [5] = settings: for peak apoptosis, tumor cells (TUNEL): in combination with fulv
[6] = GDC-0941 intratumor pharmacokinetics in mice bearing MCF-7 xenografts; format: in vivo; settings: for time of peak intratumor concentration: fulv pretreatment
MCF-7 cells [7] = assay: Caspase-3/7-activatable luciferase reporter in MCF-7 cells; format: cell-based, human; settings: 1 µM fulv for 2 d before 1 µM GDC-0941 for 12, 24 or 36 h, combination
[8] = GDC-0941 plasma pharmacokinetics in mice
ZR75-1 cells = assay: Caspase-3/7-activatable luciferase reporter in ZR75-1 cells; format: cell-based, human; settings: 1 µM fulv for 2 d before 1 µM GDC-0941 for 12 or 24 h, combination
in vivo = settings: NOD-scid/IL2Rγ−/− (NSG; NOD.Cg-Prkdcscid Il2rgtm1Wjl/SzJ), mouse, plasma, po, 800 mg/kg
[9] = low-dose (100 mg/kg), single dose

Cc1ccc(NC(=O)c2ccc(CN3CCN(C)CC3)cc2)cc1Nc1nccc(-c2cccnc2)n1 [imatinib]
patients in whom recurrence was prevented [1]: 7/7

C[C@]12CC[C@@H]3c4ccc(O)cc4C[C@@H](CCCCCCCCC[S+]([O-])CCCC(F)(F)C(F)(F)F)[C@H]3[C@@H]1CC[C@@H]2O (stereo partly drawn) [fulv]
tumor response (MCF-7 tumors [2]; fulv alone, larger MCF-7 tumors (500–1,000 mm^3)): generally unresponsive
tumor growth [3]: did not affect tumor growth
growth of MCF-7 cells (MCF-7 cells [4]; single-agent fulv (1 µM)): effectively inhibited growth

CS(=O)(=O)N1CCN(Cc2cc3nc(-c4cccc5[nH]ncc45)nc(N4CCOCC4)c3s2)CC1 [GDC-0941]
maintained apoptosis (TUNEL) (MCF-7 tumors [5]; fulv plus bi-daily low-dose GDC-0941 (3 d on, 4 d off), until 72 h): ~ 10%
apoptosis (TUNEL) (MCF-7 tumors [5]; fulv plus daily low-dose GDC-0941, maintained for 72 h): 8–10%
peak apoptosis, tumor cells (TUNEL) (MCF-7 tumors [5]; one low dose (100 mg/kg) GDC-0941, at 24 h): 6.7%
peak apoptosis, tumor cells (TUNEL) (MCF-7 tumors [5]; single high-dose (800 mg/kg) GDC-0941, at 48 h): 30.1%
peak apoptosis, tumor cells (TUNEL) (MCF-7 tumors [5]; two low doses (100 mg/kg at 0 and 12 h) GDC-0941, at 24 h): 15.9%
tumor response (MCF-7 tumors [2]; combination of fulv and GDC-0941, regardless of dose/schedule, MCF-7 tumors): near-complete tumor regression in most cases
body weight (MCF-7 tumors [2]; single-agent GDC-0941, different doses/schedules): without notable loss of body weight
tumor growth (MCF-7 tumors [2]; single-agent GDC-0941, different doses/schedules, MCF-7 tumors 500–1,000 mm^3): only slowed tumor growth
time until intratumor concentration below the detectable limit ([6]; high-dose (800 mg/kg)): ≤ 72 h
time of peak intratumor concentration ([6]; high-dose (800 mg/kg)): 9 h
time at which drug was undetectable in tumor ([6]; low-dose (100 mg/kg) with a second dose at 12 h): 36 h
time at which drug was undetectable in tumor [6, 9]: 18 h
time of peak intratumor concentration [6, 9]: 9 h
time of peak intratumor concentration ([6]; two low-dose treatments (100 mg/kg at 0 and 12 h)): 21 h
caspase-3/7 reporter activity (MCF-7 cells [7]): increased caspase-3/7 reporter activity compared to either agent alone
time until plasma concentration below the limit of detection ([8]; 100 mg/kg): ≤ 24 h
plasma concentration in plateau phase ([8]; 100 mg/kg, plateau after 1 h, maintained for 8 h): 6.8 to 10.7 µM
time until plasma concentration below detectable limits ([8]; 800 mg/kg): ≤ 72 h
plasma concentration in plateau phase ([8]; 800 mg/kg, plateau maintained through 24 h): 7.9 to 15 µM
duration of exposure required to appreciably decrease viability (MCF-7 cells [4]; MCF-7 cells, GDC-0941 ≤0.25 µM): ≥ 24 h
growth inhibition (MCF-7 cells [4]; MCF-7 cells, continuous exposure to 1–2 µM GDC-0941): near-complete growth inhibition
caspase-3/7 reporter activity (ZR75-1 cells): increased caspase-3/7 reporter activity compared to either agent alone
Tmax (in vivo): 15 to 30 min
